Experimental data from patent US10369145B2, “Coumarin derivatives and methods of use in treating hyperproliferative diseases” (DISCOVERYBIOMED, INC., priority 2013, dated 2019).

Assays:
MALME-3M = assay: NCI 60 panel: MALME-3M (Melanoma); format: cell-based
Description: (§5) TGI means the drug concentration resulting in total growth inhibition or “cytostasis.” LC50 is the concentration of drug resulting in a 50% reduction in the measured cytosolic ATP at the end of the drug treatment as compared to that at the beginning, indicating a net loss of cells following treatment (cytotoxicity).

U251MG = assay: Complementary DBM in vitro profiling: U251MG (CNS Cancer); format: cell-based
Description: (§1) The compounds described herein are effective for inhibiting cellular proliferation in hyperproliferative cell types. To study the effects of these compounds, an assay was developed to differentiate the effects of the compounds on proliferating versus confluent cells. The assay design generates a proliferating density 24 hours after seeding and provides a 3-day active cell growth/doubling window in which to gauge the anti-proliferative effect of the compounds described herein. […] In this 3-day growth window, cell number increases with daily doublings across the 72-hour period (see FIG. 1).
(§2) In each assay design, compounds were added at the 24-hour timepoint after cell seeding. The effect of the compounds, relative to vehicle control and to VelCade (a proteasome inhibitor approved in the U.S. for treating relapsed multiple myeloma and mantle cell lymphoma) as a positive control, was assessed across the 3-day growth window for proliferating cells and on an already near confluent culture of cells for the same time period. Normal cells were handled in the same manner, with some adjustment of seeding density needed in select cases. […]
(§3) Cell number at the end of the assay was determined using the CELLTITER-GLO Luminescent Cell Viability Assay (Promega; Madison, Wis.). The CELLTITER-GLO Luminescent Cell Viability Assay is a homogeneous method of determining the number of viable cells in culture based on quantitation of the ATP present, an indicator of metabolically active cells. IC50 values were calculated. […]
(§4) For a typical screening experiment to identify the compounds, cells were seeded into 96- or 384-well microtiter plates at plating densities pre-determined for each cell line to ensure drug exposure occurs during the proliferative phase well before confluency is reached. […] Values were calculated for each of these three parameters if the level of activity was reached; however, if the effect was not reached or was exceeded, the value for that parameter was expressed as greater or less than the maximum or minimum concentration tested.

tubulin = assay: Biochemical tubulin polymerization; conditions: FIG. 11C
Description: Following 24 hours of treatment with Compound DBM 228, Compound DBM 318, and Compound DBM 328, caspase 3/7 activation in U251MG cells was determined. The detection of caspase 3/7 activation in U251MG cells indicates activation of apoptosis. Tubulin polymerization was determined for Compounds DBM 227, DBM 228, DBM 308, DBM 318, DBM 701, DBM 707, DBM 715, paclitaxel, vincristine, and negative control Compound DBM 328. […] Paclitaxel served as polymerization enhancer control and vincristine served as polymerization inhibitor control.

NCI-H226 = assay: NCI 60 panel: NCI-H226 (Non-Small Cell Lung Cancer); format: cell-based
Description: as §5

HS 578T = assay: NCI 60 panel: HS 578T (Breast Cancer); format: cell-based
Description: as §5

TK-10 = assay: NCI 60 panel: TK-10 (Renal Cancer); format: cell-based
Description: as §5

SF-539 = assay: NCI 60 panel: SF-539 (CNS Cancer); format: cell-based
Description: as §5

SF-295 = assay: NCI 60 panel: SF-295 (CNS Cancer); format: cell-based
Description: as §5

HCC-2998 = assay: NCI 60 panel: HCC-2998 (Colon Cancer); format: cell-based
Description: as §5

[1] = tested on: primary human ADPKD cystic epithelial cell lines, ARCaP-M, CAKI-1; assay: Viability in cystic ADPKD cells, prostate and kidney cancer lines; format: cell-based
Description: as §1
In each assay design, compounds were added at the 24-hour timepoint after cell seeding. The effect of the compounds, relative to vehicle control and to VelCade (a proteasome inhibitor approved in the U.S. for treating relapsed multiple myeloma and mantle cell lymphoma) as a positive control, was assessed across the 3-day growth window for proliferating cells and on an already near confluent culture of cells for the same time period. Normal cells were handled in the same manner, with some adjustment of seeding density needed in select cases. This assay design holds for the data series presented below.
Cell number at the end of the assay was determined using the CELLTITER-GLO Luminescent Cell Viability Assay (Promega; Madison, Wis.). The CELLTITER-GLO Luminescent Cell Viability Assay is a homogeneous method of determining the number of viable cells in culture based on quantitation of the ATP present, an indicator of metabolically active cells. IC50 values were calculated. Cell number (number of cells per well) was converted to the % of DMSO matched controls. Each measurement was performed in triplicate. Typical dosage ranges tested were from 250 picomolar to 50 micromolar.
The compounds as described herein were tested on primary human ADPKD cystic epithelial cell lines as well as two common cancer cell lines from the prostate (ARCaP-M) and kidney (CAKI-1).

RXF 393 = assay: NCI 60 panel: RXF 393 (Renal Cancer); format: cell-based
Description: as §5

CAKI-1 = assay: Complementary DBM in vitro profiling: CAKI-1 (Renal Cancer); format: cell-based
Description: as §1, §2, §3, §4

U266 = assay: Complementary DBM in vitro profiling: U266 (Hematologic Cancer); format: cell-based
Description: as §1, §2, §3, §4

ACHN = assay: NCI 60 panel: ACHN (Renal Cancer); format: cell-based
Description: as §5

UACC-62 = assay: NCI 60 panel: UACC-62 (Melanoma); format: cell-based
Description: as §5

OVCAR-8 = assay: NCI 60 panel: OVCAR-8 (Ovarian Cancer); format: cell-based
Description: as §5

T98G = assay: Complementary DBM in vitro profiling: T98G (CNS Cancer); format: cell-based
Description: as §1, §2, §3, §4

NCI-60 cell panel = assay: NCI-60 cell panel, whole panel; format: cell-based, human; conditions: average in the NCI-60 cell panel
CCRF-CEM = assay: NCI 60 panel: CCRF-CEM (Leukemia); format: cell-based
Description: as §5

KM12 = assay: NCI 60 panel: KM12 (Colon Cancer); format: cell-based
Description: as §5

786-0 = assay: NCI 60 panel: 786-0 (Renal Cancer); format: cell-based
Description: as §5

SK-MEL-5 = assay: NCI 60 panel: SK-MEL-5 (Melanoma); format: cell-based
Description: as §5

[2] = read-out: LC50 (the source's name)

Structure (SMILES): COc1ccccc1Nc1nc(-c2cc3cccc(N)c3oc2=O)cs1 [Compound DBM 228]
- GI50 (MALME-3M): 16.8 µM
- TGI (MALME-3M): 49.6 µM
- CC50 (MALME-3M; [2]): > 100 µM
- GI50 (U251MG): 197 nM
- TGI (U251MG): >30 µM
- CC50 (U251MG; [2]): > 30 µM
- effect on biochemical tubulin polymerization, in words (tubulin): modestly inhibited
- GI50 (NCI-H226): 11.2 µM
- TGI (NCI-H226): 37.2 µM
- CC50 (NCI-H226; [2]): > 100 µM
- GI50 (HS 578T): 13.7 µM
- TGI (HS 578T): >100 µM
- CC50 (HS 578T; [2]): > 100 µM
- GI50 (TK-10): 10 µM
- TGI (TK-10): 23.5 µM
- CC50 (TK-10; [2]): 55 µM
- GI50 (SF-539): 109 nM
- TGI (SF-539): 850 nM
- CC50 (SF-539; [2]): 29.8 µM
- GI50 (SF-295): 42.4 nM
- TGI (SF-295): 1.49 µM
- CC50 (SF-295; [2]): 41.5 µM
- GI50 (HCC-2998): 1050 nM
- TGI (HCC-2998): 16.5 µM
- CC50 (HCC-2998; [2]): > 100 µM
- effect on cells, in words ([1]; at and around the 1 micromolar dose): cytostatic plateau
- effect on cells, in words ([1]; higher mid-micromolar concentrations): cytotoxic effect
- effect on cells, in words ([1]; nanomolar ranges, 12-point CRC): growth arrested but not killed
- GI50 (RXF 393): 218 nM
- TGI (RXF 393): 15.2 µM
- CC50 (RXF 393; [2]): 52.6 µM
- GI50 (CAKI-1): 142 nM
- TGI (CAKI-1): 1.92 µM
- CC50 (CAKI-1; [2]): 5.21 µM
- GI50 (U266): 79.6 nM
- TGI (U266): 116 nM
- CC50 (U266; [2]): 161 nM
- GI50 (ACHN): 1490 nM
- TGI (ACHN): 15.9 µM
- CC50 (ACHN; [2]): 42.7 µM
- GI50 (UACC-62): 51.1 nM
- LC50 (lethal concentration, 50% net cell kill) (UACC-62): > 100 µM
- TGI (UACC-62): 28.2 µM
- GI50 (OVCAR-8): 310 nM
- TGI (OVCAR-8): 13.2 µM
- CC50 (OVCAR-8; [2]): > 100 µM
- GI50 (T98G): 467 nM
- TGI (T98G): 3.97 µM
- CC50 (T98G; [2]): 17.6 µM
- GI50 (NCI-60 cell panel): 250 nM
- GI50 (CCRF-CEM): 177 nM
- LC50 (50% lethal concentration) (CCRF-CEM): > 100 µM
- TGI (CCRF-CEM): 15.4 µM
- GI50 (KM12): 70.5 nM
- TGI (KM12): 13.4 µM
- CC50 (KM12; [2]): > 100 µM
- GI50 (786-0): 709 nM
- TGI (786-0): 15.9 µM
- CC50 (786-0; [2]): 89.4 µM
- GI50 (SK-MEL-5): 76.8 nM
- TGI (SK-MEL-5): 2.3 µM
- CC50 (SK-MEL-5; [2]): 26.8 µM
